# Data: PMC7307906, “Macrocyclic Modalities Combining Peptide Epitopes and Natural Product Fragments” (Journal of the American Chemical Society, 2020)
# Where a SMILES comes first, the peptide text is derived from it. Bridges are numbered along the chain shown (N, C = ends). Where no end group is shown, it is not given here. [ ]: non-standard residue; d: D form. pyrrolidinyl‑spirobarbiturate (VII) = not defined here; N‑phenyl fused di‑pyrrolidine (II) = not defined here; N‑methyl fused di‑pyrrolidine (I) = not defined here; ortho ether aromatic unit (VIII) = not defined here; phenylmethanamine linker (IX) = not defined here; NP‑inspired fragment III = not defined here; pyrrolidine (IV) = not defined here; NMeF = CN[C@@H](Cc1ccccc1)C(=O)O; NMeL = CN[C@@H](CC(C)C)C(=O)O; NMeV = CN[C@H](C(=O)O)C(C)C
# T1: SPSB2 (Homo sapiens, UniProt Q99619)
# T1 chain: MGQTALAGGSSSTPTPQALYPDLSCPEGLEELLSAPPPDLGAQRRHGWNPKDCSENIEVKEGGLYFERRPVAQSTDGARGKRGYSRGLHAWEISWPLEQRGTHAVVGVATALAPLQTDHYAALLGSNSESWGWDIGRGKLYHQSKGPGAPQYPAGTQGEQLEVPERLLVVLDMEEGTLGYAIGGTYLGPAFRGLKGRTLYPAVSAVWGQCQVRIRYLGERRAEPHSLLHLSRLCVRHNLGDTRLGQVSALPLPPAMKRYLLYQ
# Experiments:
# [1] = target: T2, human MC1R (Homo sapiens, UniProt Q01726); assay: Melanocortin receptor radioligand binding (SPA, [125I]-NDP-α-MSH displacement), MC1R; settings: competitive binding, mean (± SEM) of at least three independent experiments, read-out: IC50 hMC1R binding
# T2 construct: expressed in transfected cells
# T2 sequence (Q01726 whole entry): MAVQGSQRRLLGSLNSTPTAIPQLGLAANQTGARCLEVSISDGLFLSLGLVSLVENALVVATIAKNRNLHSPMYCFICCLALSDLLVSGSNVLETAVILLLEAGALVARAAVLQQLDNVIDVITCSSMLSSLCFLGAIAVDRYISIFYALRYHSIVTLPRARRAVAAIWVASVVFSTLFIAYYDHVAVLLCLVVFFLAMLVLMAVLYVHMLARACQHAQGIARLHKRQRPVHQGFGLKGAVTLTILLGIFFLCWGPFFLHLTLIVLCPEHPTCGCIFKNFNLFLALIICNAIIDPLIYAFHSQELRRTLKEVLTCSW
# [2] = target: T3, human MC3R (Homo sapiens, UniProt P41968); assay: Melanocortin receptor radioligand binding (SPA, [125I]-NDP-α-MSH displacement), MC3R; settings: competitive binding, mean (± SEM) of at least three independent experiments, read-out: IC50 hMC3R binding
# T3 construct: expressed in transfected cells
# T3 sequence (P41968 whole entry): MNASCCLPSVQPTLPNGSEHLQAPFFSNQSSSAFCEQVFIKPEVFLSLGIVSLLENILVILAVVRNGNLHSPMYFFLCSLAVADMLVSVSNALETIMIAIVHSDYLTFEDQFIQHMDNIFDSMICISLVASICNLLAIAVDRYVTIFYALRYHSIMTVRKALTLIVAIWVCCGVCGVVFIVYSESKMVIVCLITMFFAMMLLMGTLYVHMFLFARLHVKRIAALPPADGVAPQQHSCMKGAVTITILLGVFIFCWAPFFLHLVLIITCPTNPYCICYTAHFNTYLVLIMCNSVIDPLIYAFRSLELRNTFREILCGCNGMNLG
# [3] = target: T4, human MC4R (Homo sapiens, UniProt P32245); assay: Melanocortin receptor radioligand binding (SPA, [125I]-NDP-α-MSH displacement), MC4R; settings: competitive binding, mean (± SEM) of at least three independent experiments, read-out: IC50 hMC4R binding
# T4 construct: expressed in transfected cells
# T4 sequence (P32245 whole entry): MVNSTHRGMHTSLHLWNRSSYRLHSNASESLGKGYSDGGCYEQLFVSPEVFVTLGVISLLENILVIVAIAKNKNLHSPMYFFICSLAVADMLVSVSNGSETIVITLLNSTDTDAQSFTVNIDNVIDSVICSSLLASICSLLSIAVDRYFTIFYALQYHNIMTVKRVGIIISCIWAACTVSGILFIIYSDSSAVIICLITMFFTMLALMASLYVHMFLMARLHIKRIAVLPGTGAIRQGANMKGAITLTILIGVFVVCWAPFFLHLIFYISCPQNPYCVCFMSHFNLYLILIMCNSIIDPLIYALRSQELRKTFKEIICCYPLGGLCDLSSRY
# [4] = target: T5, human MC5R (Homo sapiens, UniProt P33032); assay: Melanocortin receptor radioligand binding (SPA, [125I]-NDP-α-MSH displacement), MC5R; settings: competitive binding, [125I]-NDP-α-MSH; mean (± SEM) of at least three independent experiments; read-out: IC50 hMC5R binding
# T5 construct: expressed in transfected cells; host or cells: HEK293-6E suspension cells, transient expression; membranes
# T5 sequence (P33032 whole entry): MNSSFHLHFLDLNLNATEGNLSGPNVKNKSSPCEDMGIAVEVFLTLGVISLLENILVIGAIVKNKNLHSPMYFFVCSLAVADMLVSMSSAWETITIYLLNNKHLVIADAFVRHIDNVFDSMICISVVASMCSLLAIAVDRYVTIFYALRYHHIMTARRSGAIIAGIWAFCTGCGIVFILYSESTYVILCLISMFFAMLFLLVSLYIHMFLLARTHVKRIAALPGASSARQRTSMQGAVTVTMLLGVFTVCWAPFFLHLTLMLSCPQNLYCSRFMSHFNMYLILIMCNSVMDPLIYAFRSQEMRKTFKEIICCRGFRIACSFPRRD
# [5] = target: T2, human MC1R; assay: cAMP assay (LANCE) in T-Rex-293 cells expressing MC1R; type: cell-based; settings: for Emax: T-REx-293, read-out: % Effect hMC1R cAMP; for EC50: mean (± SEM) of at least three independent experiments, read-out: EC50 hMC1R cAMP
# [6] = target: T3, human MC3R; assay: cAMP assay (LANCE) in T-Rex-293 cells expressing MC3R; type: cell-based; settings: cAMP assay; mean (± SEM) of at least three independent experiments; read-out: EC50 hMC3R cAMP
# [7] = target: T4, human MC4R; assay: cAMP assay (LANCE) in T-Rex-293 cells expressing MC4R; type: cell-based; settings: cAMP assay; mean (± SEM) of at least three independent experiments; read-out: EC50 hMC4R cAMP
# [8] = target: T1, SPSB2; assay: SPR
molecule,measurement,setting,value
"CN1C(=O)[C@H]2N[C@@H](c3ccc(cc3)C(=O)NCCCC[C@@H](C(N)=O)NC(=O)[C@H](Cc3ccccc3)NC(=O)[C@H](Cc3ccccc3)NC(=O)[C@H](CCCNC(=N)N)NC(=O)[C@@H]1Cc1ccccc1)[C@H]1C(=O)N(c3ccccc3)C(=O)[C@H]12 [N3-major*, [II-FRFFK ]]",IC50,[1],> 100000 nM
same,IC50,[2],> 100000 nM
same,IC50,[3],> 100000 nM
same,IC50,[4],74000 ± 4000 nM
same,Emax,[5],40%
same,EC50,[5]; cAMP assay,22000 ± 3000 nM
same,EC50,[6],> 100000 nM
same,EC50,[7],> 100000 nM
"CN1C(=O)[C@@H]2[C@H](C1=O)[C@H]1N[C@@H]2C(=O)N(C)[C@@H](Cc2ccccc2)C(=O)N[C@@H](CCCNC(=N)N)C(=O)N[C@H](Cc2ccccc2)C(=O)N[C@H](Cc2ccccc2)C(=O)N[C@H](C(=O)N[C@@H](Cc2ccc(O)cc2)C(N)=O)CCCCNC(=O)c2ccc1cc2 [O1-minor, [I-FRffK ]Y]",IC50,[1],> 10000 nM
same,IC50,[2],> 10000 nM
same,IC50,[3],> 10000 nM
same,IC50,[4],> 10000 nM
same,% Effect hMC1R cAMP at 10 µM,"[5]; % effect at 10 µM, compounds not reaching an upper plateau (#)",21%
same,EC50,[5]; cAMP assay,> 10000 nM
same,EC50,[6],> 10000 nM
same,EC50,[7],> 10000 nM
"C[C@@H]1NC(=O)[C@H](CC(N)=O)NC(=O)[C@@H](Cc2ccccc2)NC(=O)[C@@H](Cc2ccccc2)NC(=O)[C@H](CCCNC(=N)N)NC(=O)[C@@H](NC(=O)[C@@H](N)Cc2ccc(O)cc2)CSSC[C@@H](C(=O)N[C@@H](Cc2ccc(O)cc2)C(N)=O)NC(=O)[C@H](Cc2ccccc2)NC1=O [compound 29, Y[CRffNAFC]Y, reference compound] (HELM PEPTIDE1{Y.C.R.[dF].[dF].N.A.F.C.Y.[am]}$PEPTIDE1,PEPTIDE1,2:R3-9:R3$$$V2.0)",IC50,[1],2500 ± 500 nM
same,IC50,[2],9500 ± 900 nM
same,IC50,[3],7100 ± 500 nM
same,IC50,[4],2500 ± 300 nM
same,Emax,[5],84%
same,agonistic activity at MC1R (in words),"[5]; cAMP assay, hMC1R",selective and almost full agonistic activity
same,EC50,[6],> 100000 nM
same,EC50,[7],> 100000 nM
[NMeF]DINNNKG-NH2 (bridge (positions not given here) via N‑methyl fused di‑pyrrolidine (I); reading uncertain; also: macrocycle via N-methyl fused di-pyrrolidine (I)) [PepNat D1-major],Kd,[8],33 nM
"[NMeL]DINNNKG-NH2 (bridge (positions not given here) via N‑methyl fused di‑pyrrolidine (I); reading uncertain; also: macrocycle via N-methyl fused di-pyrrolidine (I), minor diastereomer) [PepNat D12-minor]",Kd,[8],127 nM
"[NMeV]DINNNKG-NH2 (bridge (positions not given here) via N‑methyl fused di‑pyrrolidine (I); reading uncertain; also: macrocycle via N-methyl fused di-pyrrolidine (I), minor diastereomer) [PepNat D13-minor]",Kd,[8],78 nM
"[NMeF]DINNNK (linker (positions not given here) via phenylmethanamine linker (IX); reading uncertain; also: cyclized via phenylmethanamine linker (IX), attachment points not given here) [macrocycle 27]",Kd,[8],87 nM
[NMeV]DINNNKG-NH2 (bridge (positions not given here) via N‑methyl fused di‑pyrrolidine (I); reading uncertain; also: macrocycle via N-methyl fused di-pyrrolidine (I)) [PepNat D13-major],Kd,[8],15 nM
Ac-KEEKDINNNVKKT [iNOS peptide 22],Kd,[8],7.1 nM
"VDINNNKG (macrocycle via N-phenyl fused di-pyrrolidine (II), N-Me-Val) [PepNat D18-major]",Kd,[8],2.2 nM
[NMeF]DINNNKG-NH2 (bridge (positions not given here) via pyrrolidine (IV); reading uncertain; also: macrocycle via pyrrolidine (IV)) [PepNat D4-major],Kd,[8],18 nM
[NMeF]DINNNKG-NH2 (bridge (positions not given here) via NP‑inspired fragment III; reading uncertain; also: macrocycle via NP-inspired fragment III) [PepNat D3-major],Kd,[8],309 nM
"DINNN (bridge (positions not given here) via ortho ether aromatic unit (VIII); reading uncertain; also: cyclized via ortho ether aromatic unit (VIII), attachment points not given here) [cyclic peptidomimetic 26]",Kd,[8],175 nM
"VDINNNKG (macrocycle via N-phenyl fused di-pyrrolidine (II) minor diastereomer, N-Me-Val) [PepNat D18-minor]",Kd,[8],139 nM
[NMeF]DINNNKG-NH2 (bridge (positions not given here) via pyrrolidinyl‑spirobarbiturate (VII); reading uncertain; also: macrocycle via pyrrolidinyl-spirobarbiturate (VII)) [PepNat D7-major],Kd,[8],3.8 nM
CVDINNNC (disulfide 1-8 (inferred)) [cyclic peptide 24],Kd,[8],16 nM
[NMeL]DINNNKG-NH2 (bridge (positions not given here) via N‑methyl fused di‑pyrrolidine (I); reading uncertain; also: macrocycle via N-methyl fused di-pyrrolidine (I)) [PepNat D12-major],Kd,[8],10 nM
Ac-DINNN [iNOS peptide 23],Kd,[8],237 nM
[NMeF]DINNNKG-NH2 (bridge (positions not given here) via N‑phenyl fused di‑pyrrolidine (II); reading uncertain; also: macrocycle via N-phenyl fused di-pyrrolidine (II)) [PepNat D2-major],Kd,[8],231 nM
